Assay results: ChEMBL document CHEMBL1125092, “Nonneurotoxic tetralin and indan analogues of 3,4-(methylenedioxy)amphetamine (MDA)” (J Med Chem, 1990)

How the values were obtained:
Rattus norvegicus [1] = experiment: Hallucinogenic property was determined in groups of LSD trained rats and percentage of animals disrupted was reported at a dose 2.2 (umol/kg), (number of animals = 15); assay type: functional
Rattus norvegicus [2] = experiment: Hallucinogenic property was determined in groups of MDMA trained rats and percentage of animals disrupted was reported at a dose 17.57(umol/kg), (number of animals =11); assay type: functional
Rattus norvegicus [3] = experiment: Hallucinogenic property was determined in groups of MDMA trained rats and percentage of animals disrupted was reported at a dose 4.39 (umol/kg),(number of animals = 9); assay type: functional
Rattus norvegicus [4] = species on record: Rattus norvegicus; experiment: Compounds were evaluated for binding of [3H]paroxetine to rat hippocampal homogenate and number of binding sites (Bmax) for serotonin; assay type: tissue-based; conditions: Hippocampus
Rattus norvegicus [5] = experiment: Tested for stimulus generation in rats trained to discriminate LSD from saline at a dose 8.78 (umol/kg), (number of animals = 16); assay type: functional
Rattus norvegicus [6] = experiment: Monoamine levels in rat brain were evaluated after subcutaneous administration of 40 mg/kg for 5-HT; assay type: functional
Rattus norvegicus [7] = species on record: Rattus norvegicus; experiment: Compounds were evaluated for binding of [3H]paroxetine to rat brain cortical homogenate and number of binding sites (Bmax) for serotonin; assay type: tissue-based
Rattus norvegicus [8] = experiment: Monoamine levels in rat brain were evaluated after subcutaneous administration of 40 mg/kg for DA; assay type: functional
Rattus norvegicus [9] = experiment: Hallucinogenic property was determined in groups of LSD trained rats and percentage of animals disrupted was reported at a dose 17.57(umol/kg), (number of animals =21); assay type: functional
Rattus norvegicus [10] = experiment: Hallucinogenic property was determined in groups of MDMA trained rats and percentage of animals disrupted was reported at a dose 2.2 (umol/kg), (number of animals =9); assay type: functional
Rattus norvegicus [11] = experiment: Monoamine levels in rat brain were evaluated after subcutaneous administration of 40 mg/kg for NE; assay type: functional
Rattus norvegicus [12] = experiment: Tested for stimulus generation in rats trained to discriminate +/-MDMA from saline at 4.39 (umol/kg),(number of animals = 9); assay type: functional
Rattus norvegicus [13] = experiment: Tested for stimulus generation in rats trained to discriminate +/-MDMA from saline at 2.2 (umol/kg), (number of animals =9); assay type: functional
Rattus norvegicus [14] = experiment: Tested for stimulus generation in rats trained to discriminate +/-MDMA from saline at 17.57 (umol/kg), (number of animals =11); assay type: functional
[15] = Binding affinity was determined towards serotonin uptake site in presence of [3H]paroxetine radioligand in rat brain cortical homogenate; assay type: tissue-based
Rattus norvegicus [16] = experiment: Hallucinogenic property was determined in groups of MDMA trained rats and percentage of animals disrupted was reported at a dose 8.78 (umol/kg), (number of animals = 8); assay type: functional
Rattus norvegicus [17] = experiment: Monoamine levels in rat brain were evaluated after subcutaneous administration of 40 mg/kg for DOPAC; assay type: functional
Rattus norvegicus [18] = experiment: Monoamine levels in rat brain were evaluated after subcutaneous administration of 40 mg/kg for 5-HIAA; assay type: functional
Rattus norvegicus [19] = experiment: Tested for stimulus generation in rats trained to discriminate LSD from saline at a dose 2.2 (umol/kg), (number of animals = 15); assay type: functional
Rattus norvegicus [20] = experiment: Hallucinogenic property was determined in groups of LSD trained rats and percentage of animals disrupted was reported at 4.39 (umol/kg),(number of animals =11); assay type: functional
Rattus norvegicus [21] = experiment: Monoamine levels in rat hippocampus were evaluated after subcutaneous administration of 40 mg/kg for 5-HIAA; assay type: functional
Rattus norvegicus [22] = experiment: Hallucinogenic property was determined in groups of LSD trained rats and percentage of animals disrupted was reported at a dose 8.78 (umol/kg), (number of animals = 16); assay type: functional
[23] = Binding affinity was determined towards serotonin uptake site in presence of [3H]paroxetine radioligand in rat hippocampal homogenate; assay type: tissue-based, Hippocampus
Rattus norvegicus [24] = experiment: Monoamine levels in rat brain were evaluated after subcutaneous administration of 40 mg/kg for HVA; assay type: functional
Rattus norvegicus [25] = experiment: Monoamine levels in at hippocampus were evaluated after subcutaneous administration of 40 mg/kg for NE; assay type: functional
Rattus norvegicus [26] = experiment: Tested for stimulus generation in rats trained to discriminate LSD from saline at a dose 4.39 (umol/kg),(number of animals =11); assay type: functional
Rattus norvegicus [27] = experiment: Monoamine levels in rat hippocampus were evaluated after subcutaneous administration of 40 mg/kg for 5-HT; assay type: functional
Rattus norvegicus [28] = experiment: Tested for stimulus generation in rats trained to discriminate +/-MDMA from saline at 8.78 (umol/kg), (number of animals = 8); assay type: functional
Rattus norvegicus [29] = experiment: Hallucinogenic property was determined in groups of LSD trained rats and percentage of animals disrupted was reported at a dose 13.18 (umol/kg),(number of animals = 15); assay type: functional
Rattus norvegicus [30] = experiment: Hallucinogenic property was determined in groups of LSD trained rats and percentage of animals disrupted was reported at a dose 9.36 (umol/kg),(number of animals = 10); assay type: functional
Rattus norvegicus [31] = experiment: Hallucinogenic property was determined in groups of MDMA trained rats and percentage of animals disrupted was reported at 18.72 (umol/kg),(number of animals = 5); assay type: functional
Rattus norvegicus [32] = experiment: Tested for stimulus generation in rats trained to discriminate +/-MDMA from saline at 9.36 (umol/kg), (number of animals = 9); assay type: functional
Rattus norvegicus [33] = experiment: Tested for stimulus generation in rats trained to discriminate LSD from saline at a dose 9.36 (umol/kg), (number of animals = 10); assay type: functional
Rattus norvegicus [34] = experiment: Tested for stimulus generation in rats trained to discriminate +/-MDMA from saline at 18.72 (umol/kg),(number of animals = 5); assay type: functional
Rattus norvegicus [35] = experiment: Hallucinogenic property was determined in groups of MDMA trained rats and percentage of animals disrupted was reported at a dose 4.68 (umol/kg), (number of animals = 10); assay type: functional
Rattus norvegicus [36] = experiment: Tested for stimulus generation in rats trained to discriminate +/-MDMA from saline at 4.68 (umol/kg), (number of animals = 10); assay type: functional
Rattus norvegicus [37] = experiment: Hallucinogenic property was determined in groups of MDMA trained rats and percentage of animals disrupted was reported at a dose 1.17 (umol/kg), (number of animals =6); assay type: functional
Rattus norvegicus [38] = experiment: Hallucinogenic property was determined in groups of MDMA trained rats and percentage of animals disrupted was reported at 28.08 (umol/kg),(number of animals = 4); assay type: functional
Rattus norvegicus [39] = experiment: Tested for stimulus generation in rats trained to discriminate LSD from saline at a dose 1.17 (umol/kg),(number of animals = 10); assay type: functional
Rattus norvegicus [40] = experiment: Hallucinogenic property was determined in groups of LSD trained rats and percentage of animals disrupted was reported at a dose 18.72 (umol/kg),(number of animals = 5); assay type: functional
Rattus norvegicus [41] = experiment: Hallucinogenic property was determined in groups of MDMA trained rats and percentage of animals disrupted was reported at a dose 9.36 (umol/kg), (number of animals = 9); assay type: functional
Rattus norvegicus [42] = experiment: Tested for stimulus generation in rats trained to discriminate LSD from saline at a dose 4.68 (umol/kg),(number of animals = 10); assay type: functional
Rattus norvegicus [43] = experiment: Tested for stimulus generation in rats trained to discriminate +/-MDMA from saline at 2.34 (umol/kg), (number of animals = 8); assay type: functional
Rattus norvegicus [44] = experiment: Hallucinogenic property was determined in groups of LSD trained rats and percentage of animals disrupted was reported at a dose 1.17 (umol/kg),(number of animals = 10); assay type: functional
Rattus norvegicus [45] = experiment: Tested for stimulus generation in rats trained to discriminate LSD from saline at a dose 2.34 (umol/kg),(number of animals = 13); assay type: functional
Rattus norvegicus [46] = experiment: Hallucinogenic property was determined in groups of LSD trained rats and percentage of animals disrupted was reported at a dose 4.68 (umol/kg),(number of animals = 10); assay type: functional
Rattus norvegicus [47] = experiment: Hallucinogenic property was determined in groups of MDMA trained rats and percentage of animals disrupted was reported at a dose 2.34 (umol/kg), (number of animals = 8); assay type: functional
Rattus norvegicus [48] = experiment: Hallucinogenic property was determined in groups of LSD trained rats and percentage of animals disrupted was reported at 2.34 (umol/kg),(number of animals = 13); assay type: functional
Rattus norvegicus [49] = experiment: Tested for disruption in more than 50% rats trained to discriminate LSD from saline at a dose 18.72 (umol/kg) (no. of animals =5); assay type: functional
Rattus norvegicus [50] = experiment: Tested for stimulus generation in rats trained to discriminate +/-MDMA from saline at 1.17 (umol/kg), (number of animals = 6); assay type: functional

NC1CCc2cc3c(cc2C1)OCO3 (stereo not given)
D (Rattus norvegicus [1]): 47%
D (Rattus norvegicus [2]): 27%
D (Rattus norvegicus [3]): 11%
Bmax (Rattus norvegicus [4]): 778 fM/g
SDL (Rattus norvegicus [5]): 63%
Monoamine level (Rattus norvegicus [6]): 356 pg/mg
Bmax (Rattus norvegicus [7]): 964 fM/g
Monoamine level (Rattus norvegicus [8]): 151 pg/mg
D (Rattus norvegicus [9]): 64%
D (Rattus norvegicus [10]): 11%
Monoamine level (Rattus norvegicus [11]): 367 pg/mg
SDL (Rattus norvegicus [12]): 50%
SDL (Rattus norvegicus [13]): 13%
SDL (Rattus norvegicus [14]): 88%
Kd [15]: 0.102 nM
D (Rattus norvegicus [16]): 0%
Monoamine level (Rattus norvegicus [17]): 213 pg/mg
Monoamine level (Rattus norvegicus [18]): 370 pg/mg
SDL (Rattus norvegicus [19]): 25%
D (Rattus norvegicus [20]): 27%
Monoamine level (Rattus norvegicus [21]): 549 pg/mg
D (Rattus norvegicus [22]): 50%
Kd [23]: 0.118 nM
Monoamine level (Rattus norvegicus [24]): 262 pg/mg
Monoamine level (Rattus norvegicus [25]): 484 pg/mg
SDL (Rattus norvegicus [26]): 38%
Monoamine level (Rattus norvegicus [27]): 256 pg/mg
SDL (Rattus norvegicus [28]): 63%
D (Rattus norvegicus [29]): 67%

NC1Cc2ccc3c(c2C1)OCO3 (stereo not given)
D (Rattus norvegicus [30]): 20%
D (Rattus norvegicus [31]): 0%
SDL (Rattus norvegicus [32]): 25%
SDL (Rattus norvegicus [33]): 25%
SDL (Rattus norvegicus [34]): 0%
D (Rattus norvegicus [35]): 20%
SDL (Rattus norvegicus [36]): 13%
D (Rattus norvegicus [37]): 0%
D (Rattus norvegicus [38]): 50%
SDL (Rattus norvegicus [39]): 38%
D (Rattus norvegicus [40]): 100%
D (Rattus norvegicus [41]): 11%
SDL (Rattus norvegicus [42]): 13%
SDL (Rattus norvegicus [43]): 29%
D (Rattus norvegicus [44]): 20%
SDL (Rattus norvegicus [45]): 25%
D (Rattus norvegicus [46]): 20%
D (Rattus norvegicus [47]): 13%
D (Rattus norvegicus [48]): 44%
SDL (Rattus norvegicus [49]): 0%
SDL (Rattus norvegicus [50]): 0%
